The values below come from patent US10689421B2, “Bacteriocin-producing Paenibacillus ehimensis and application thereof” (National Pingtung University of Science and Technology, priority 2018, dated 2020).

One assay has as its system P. ehimensis NPUST-1. The assay can be described thus: Inhibition effect of aquacultural antibiotics against NPUST-1 strain (inhibitory zone). Particulars: TSB agar plate containing P. ehimensis NPUST-1; each antibiotic at its maximum concentration for aquaculture (Table 4). Further details: inhibitory zone size: unit not given here. In kind it is cell-based, Paenibacillus ehimensis. The source says:
To find out competent antibiotics for combination with NPUST-1 bacterial strain used as a probiotic, inhibition effect of varies aquacultural antibiotics against NPUST-1 bacterial strain are examined. Detailed testing steps are described as below.
Following antibiotics are examined: amoxicillin, ampicillin, doxycycline, erythromycin, furazolidone, flumequine, ormetoprim, oxytetracycline, sulfadimethoxine, chloramphenicol, gentamycin and kanamycin. The antibiotics concentration (shown in table 4) being tested are the available maximum concentration conformed to the drug regulation for aquaculture. After all the antibiotics are prepared, use TSB agar plate containing P. ehimensis NPUST-1 to determine the antibacterial activity and measure the inhibitory zone of antibiotics.
For `O=C1OCCN1/N=C/c1ccc([N+](=O)[O-])o1` [Furazolidone, furazolidone], the inhibitory zone size came to 1.00 ± 0.00.

Take `CC1CCc2cc(F)cc3c(=O)c(C(=O)O)cn1c23` (centres unmarked) [Flumequine, flumequine]: the inhibitory zone size amounted to 5.67 ± 0.06.

Turning to `COc1cc(C)c(Cc2cnc(N)nc2N)cc1OC` [Ormetoprim, ormetoprim], the inhibitory zone size was 4.60 ± 0.00.

On to `CN(C)[C@@H]1C(O)=C(C(N)=O)C(=O)[C@@]2(O)C(O)=C3C(=O)c4c(O)cccc4[C@@](C)(O)[C@H]3[C@H](O)[C@@H]12` [Oxytetracycline, oxytetracycline], for which the inhibitory zone size was 2.13 ± 0.06.

On to `NC[C@H]1O[C@H](O[C@H]2[C@H](O)[C@@H](O[C@H]3O[C@H](CO)[C@@H](O)[C@H](N)[C@H]3O)[C@H](N)C[C@@H]2N)[C@H](O)[C@@H](O)[C@@H]1O` [Kanamycin, kanamycin], for which the inhibitory zone size was 1.13 ± 0.03.

With gentamycin, the inhibitory zone size amounted to 2.03 ± 2.03.

Take `O=C(N[C@H](CO)[C@H](O)c1ccc([N+](=O)[O-])cc1)C(Cl)Cl` [Chloramphenicol, chloramphenicol]: the inhibitory zone size is 2.67 ± 0.06.

Regarding `C[C@H]1c2cccc(O)c2C(=O)C2=C(O)[C@]3(O)C(=O)C(C(N)=O)=C(O)[C@@H](N(C)C)[C@@H]3[C@@H](O)[C@@H]21` [Doxycycline, doxycycline], the inhibitory zone size worked out at 3.30 ± 0.00.

Turning to `CC[C@H]1OC(=O)[C@H](C)[C@@H](O[C@H]2C[C@@](C)(OC)[C@@H](O)[C@H](C)O2)[C@H](C)[C@@H](O[C@@H]2O[C@H](C)C[C@H](N(C)C)[C@H]2O)[C@](C)(O)C[C@@H](C)C(=O)[C@H](C)[C@@H](O)[C@]1(C)O` [Erythromycin, erythromycin], the inhibitory zone size is 1.73 ± 0.06.

With `CC1(C)S[C@@H]2[C@H](NC(=O)[C@H](N)c3ccc(O)cc3)C(=O)N2[C@H]1C(=O)O` [Amoxicillin, amoxicillin], the inhibitory zone size came to 2.30 ± 0.10.

Staying with this assay, now noted: in words.
On to `Cc1ccnc(NS(=O)(=O)c2ccc(N)cc2)n1` [sulfamerazine], for which the “resistance of the strain NPUST-1 against the antibiotic” value is “resistance”.

For the molecule `CC1(C)S[C@@H]2[C@H](NC(=O)[C@H](N)c3ccccc3)C(=O)N2[C@H]1C(=O)O` [Ampiciliin, ampicillin], the “resistance of the strain NPUST-1 against the antibiotic” value is listed as “resistance”.

Still in this assay, the particulars now being: in words; antibiotic at maximum concentration for aquaculture.
On to `COc1cc(NS(=O)(=O)c2ccc(N)cc2)nc(OC)n1` [Sulfadimethoxine, sulfadimethoxine], for which the “inhibition effect against P. ehimensis NPUST-1” value is recorded as “no inhibition effect”.

Consider `CC1(C)S[C@@H]2[C@H](NC(=O)[C@H](N)c3ccccc3)C(=O)N2[C@H]1C(=O)O` [Ampiciliin, ampicillin], for which the “inhibition effect against P. ehimensis NPUST-1” value is “no inhibition effect”.
